The NIST ThermoML archive (doi:10.1021/je800664z)

Assay: xn = mol fraction of the nth substance listed
Conditions: for mass density / viscosity: 101 kPa, Liquid; for surface tension liquid-gas: Capillary rise

C1COCO1 [1,3-dioxolane] + CC(C)CC(C)(C)C
Conditions	mass density, 298.15 K [kg/m3]	mass density, 308.15 K [kg/m3]	surface tension liquid-gas, 308.15 K [mN/m]	viscosity, 298.15 K [mPa·s]	viscosity, 308.15 K [mPa·s]
x1 = 0.0501	–	686.72	17.58	–	0.431
x1 = 0.1	–	694.59	17.78	–	0.432
x1 = 0.15	–	703.08	17.93	–	0.432
x1 = 0.2	–	712.28	18.08	–	0.433
x1 = 0.25	–	722.16	18.23	–	0.433
x1 = 0.3	742.15	732.81	18.37	0.48	0.433
x1 = 0.35	753.76	744.31	18.53	0.483	0.434
x1 = 0.4	766.31	756.72	18.72	0.487	0.438
x1 = 0.45	779.89	770.11	18.93	0.492	0.442
x1 = 0.5	794.63	784.66	19.15	0.498	0.447
x1 = 0.55	810.69	800.5	19.42	0.504	0.453
x1 = 0.6	828.25	817.8	19.72	0.511	0.46
x1 = 0.65	847.56	836.8	20.05	0.519	0.467
x1 = 0.7	868.87	857.72	20.47	0.527	0.475
x1 = 0.75	892.42	880.96	20.95	0.536	0.484
x1 = 0.8	918.53	906.76	21.57	0.546	0.494
x1 = 0.85	947.66	935.7	22.6	0.557	0.505
x1 = 0.9	980.35	968.03	24.22	0.571	0.515
x1 = 0.95	1017.39	1004.78	26.78	0.584	0.526
x1 = 1	1059.29	1046.85	30.67	0.596	0.535
